Measured values as given in paper PMC11070402, “New antiproliferative 3-substituted oxindoles inhibiting EGFR/VEGFR-2 and tubulin polymerization” (Molecular Diversity, 2023).
Read-outs that look alike come from different tables or passages of the source.

What was measured:
[1] = system: Human Skin Fibroblasts (HSF) cells; experiment: Margin of safety: cytotoxicity on human skin fibroblasts (SRB assay); format: cell-based; conditions: Human Skin Fibroblasts, SRB assay, 72 h exposure, read-out: HSF (IC50 ± SD)
Protocol: Cell viability was assessed via SRB assay. Aliquots of 100 µl cell suspension (5 × 10^3 cells) were in 96-well plates and incubated in a complete media for 24 h. […] After 72 h of drug exposure, cells were fixed by replacing media with 150 µl of 10% TCA and incubated at 4 °C for 1 h. The TCA solution was removed, and the cells were washed 5 times with distilled water. Aliquots of […] SRB solution (0.4 w/v) were added and incubated in a dark place at room temperature for 10 min. Plates were washed 3 times with 1% acetic acid and allowed to air-dry overnight. Then, 150 µl of TRIS (10 mM) was added to dissolve the protein-bound SRB stain; the absorbance was measured at 540 nm using a BMG LAB TECH®-FLUO star Omega microplate reader (Ortenberg, Germany).

[2] = system: tubulin; experiment: Tubulin polymerization inhibition assay; format: biochemical
[3] = system: MCF-7 cells; experiment: Cell cycle analysis by DNA flow cytometry; format: cell-based, human
Protocol: MCF-7 Cells were placed in a six-well plate at 1 × 10^5 concentration of cells/well and then kept for incubation for 24 h. […] Cells were then collected and fixed for 12 h using ice-cold 70% ethanol at 4 °C. Ethanol was then removed, and cells were washed with cold phosphate buffer saline (PBS, 0.5 ml) and preserved for 30 min at 37 °C. The cells were stained for 30 min with propidium iodide in the dark. A flow cytometer was used to detect DNA content.

[4] = molecular target: T1, PDGFR_ẞ (Homo sapiens, UniProt P09619); experiment: PDGFR_ẞ kinase assay kit (Kinase-Glo MAX); format: biochemical
T1 construct: purchased
Protocol: The receptor tyrosine kinases, namely EGFR, VEGFR-2, and PDGFR_ẞ Kinases Assay Kits, are designed to measure EGFR, VEGFR-2, and PDGFR_ẞ Kinases’ activities for screening and profiling applications using Kinase-Glo® MAX as a detection reagent. The EGFR, VEGFR-2, and PDGFR_ẞ Kinases Assay Kits come in a convenient 96-well format, with enough purified recombinant EGFR enzyme, EGFR substrate, ATP, and kinase assay buffer for 100 enzyme reactions. The master mixture (25 µl per well) was equipped out of Kinase assay buffer (6 µl), ATP (500 µM, 1 µl), PTK substrate (50x, 1 µl), and water (17 µl) and transferred into each well. […] EGFR, VEGFR-2, and PDGFR_ẞ Kinases were softened on ice. Its tube was spun briefly to recover its full content of the tube. These enzymes were diluted with 1 × Kinase assay buffer to 1 ng/ µl. The reaction was initiated by adding 20 µl of diluted EGFR, VEGFR-2, and PDGFR_ẞ enzymes to the wells designated “Positive Control” and “Test Inhibitor Control.” The plate was incubated at 30 °C for 40 min. After the 40-min reaction, the Kinase-Glo Max (50 µl) reagent was added to each well. The plate was covered with aluminum foil and incubated at room temperature for 15 min, and the luminescence was measured using the microplate reader.

[5] = system: NCI/ADR-RES (ovarian cancer cell line); experiment: NCI one-dose assay, NCI/ADR-RES; format: cell-based; conditions: Homo sapiens; NCI/ADR-RES; 10 µM single dose, 48 h incubation; read-out: cell growth inhibition % (GI %)
Protocol: All novel scaffolds 6a–j were carefully selected by the National Cancer Institute (NCI), Bethesda, USA, to elucidate their cytotoxic activity versus 60 human cancer cell lines at 10 µM as a single-dose concentration after a 48 h incubation period.
National Cancer Institution selected all the synthesized 6a–j (NCI), Bethesda, USA, for in vitro one-dose antitumor assay. The methodology protocol for the NCI anticancer screening was reported in detail elsewhere (http://www.dtp.nci.nih.gov). The anticancer assay was performed in full NCI 60 cell lines extracted from nine tumor cell lines, including leukemia, melanoma, lung, colon, CNS, ovarian, renal, prostate, and breast cancer cell lines.

T1 sequence (P09619 33-1106, species assumed): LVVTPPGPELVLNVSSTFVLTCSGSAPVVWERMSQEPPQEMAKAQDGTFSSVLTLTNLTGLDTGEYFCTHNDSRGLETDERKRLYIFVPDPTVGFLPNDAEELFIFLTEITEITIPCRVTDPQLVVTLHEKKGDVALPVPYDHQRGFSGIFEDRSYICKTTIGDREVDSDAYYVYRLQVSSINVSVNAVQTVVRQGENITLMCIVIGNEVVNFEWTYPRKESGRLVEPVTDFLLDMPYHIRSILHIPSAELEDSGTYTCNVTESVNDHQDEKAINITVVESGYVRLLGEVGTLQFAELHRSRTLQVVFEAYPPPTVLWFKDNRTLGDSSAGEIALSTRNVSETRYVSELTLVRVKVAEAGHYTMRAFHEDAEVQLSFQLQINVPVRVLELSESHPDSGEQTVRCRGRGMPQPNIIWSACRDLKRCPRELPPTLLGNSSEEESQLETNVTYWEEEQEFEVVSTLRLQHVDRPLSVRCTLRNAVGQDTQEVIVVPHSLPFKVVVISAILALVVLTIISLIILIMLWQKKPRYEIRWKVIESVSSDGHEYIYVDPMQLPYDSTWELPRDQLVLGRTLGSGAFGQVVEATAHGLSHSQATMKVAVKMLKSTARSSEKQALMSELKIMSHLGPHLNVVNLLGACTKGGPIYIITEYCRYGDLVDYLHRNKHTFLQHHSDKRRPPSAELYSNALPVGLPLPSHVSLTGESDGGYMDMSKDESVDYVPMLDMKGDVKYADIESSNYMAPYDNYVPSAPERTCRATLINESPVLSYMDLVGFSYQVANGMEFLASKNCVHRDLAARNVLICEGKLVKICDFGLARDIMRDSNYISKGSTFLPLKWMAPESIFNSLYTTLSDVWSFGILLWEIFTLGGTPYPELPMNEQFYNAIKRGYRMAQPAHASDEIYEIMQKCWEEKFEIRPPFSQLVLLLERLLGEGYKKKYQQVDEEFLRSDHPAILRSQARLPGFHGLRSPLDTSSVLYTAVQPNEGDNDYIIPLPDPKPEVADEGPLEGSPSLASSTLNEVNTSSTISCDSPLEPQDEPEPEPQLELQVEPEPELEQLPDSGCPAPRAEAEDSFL

| Compound | IC50 ([1]; Homo sapiens, HSF, 72 h) [µM] | IC50 [1] [µM] | %inh Tub ([2]; conc 0.1 (uM printed only in the CA-4 head)) [%] | %inh Tub ([2]; conc 1 (uM printed only in the CA-4 head)) [%] | %inh Tub ([2]; conc 10 (uM printed only in the CA-4 head)) [%] | %inh Tub ([2]; conc 100 (uM printed only in the CA-4 head)) [%] | IC50 ([2]; read-out: Tubulin polymerization inhibition (IC50 ± SD)) [µM] | cell cycle arrest phase ([3]; MCF-7 cells, flow cytometry) | Freq G1 (percentage of cells) ([3]; MCF-7 treated with IC50 of compound 6f (19.43 μM in method), 24 h, control 40.68) [%] | %inh PDGFRβ ([4]; conc 0.01 (unit not given)) [%] | %inh PDGFRβ ([4]; conc 0.1 (unit not given)) [%] | %inh PDGFRβ ([4]; conc 1 (unit not given)) [%] | %inh PDGFRβ ([4]; conc 10 (unit not given)) [%] | IC50 ([4]; read-out: PDGFR_ẞ inhibition (IC50 ± SD)) [µM] | inhibition at 10 µM [5] [%] | melting point [°C] |
| --- | --- | --- | --- | --- | --- | --- | --- | --- | --- | --- | --- | --- | --- | --- | --- | --- |
| O=C1Nc2ccccc2C1=Cc1ccc(OCC(=O)c2ccc(Br)cc2)cc1 [Compound 6f, 3-{4-[2-(4-Bromophenyl)-2-oxoethoxy]benzylidene}indolin-2-one] | 19.4 | 19.4 ± 1.17 | 7 | 15 | 56 | 80 | 7.99 ± 0.49 | G0–G1phase | 51.30 | 25.63 | 40.59 | 70.36 | 88.18 | 3.18 ± 0.007 | – | – |
| O=C1Nc2cc(Cl)ccc2C1=Cc1ccc(OCC(=O)c2ccc(Br)cc2)cc1 [Compound 6g, 6-Chloro-3-{4-[2-(4-bromophenyl)-2-oxoethoxy]benzylidene}indolin-2-one] | – | – | – | – | – | – | – | – | – | – | – | – | – | – | 52.2 | 249 to 251 |
